The values that follow come from US20240116985A1, “STAPLED PEPTIDES AND METHODS THEREOF” (priority 2020, published 2024).

Experiment [1] deals with T1, full-length beta-Catenin (Uniprot ID P35222) (Homo sapiens, UniProt P35222).
T1 construct: 10 nM full-length beta-Catenin (Uniprot ID P35222)
T1 sequence (P35222 1-781): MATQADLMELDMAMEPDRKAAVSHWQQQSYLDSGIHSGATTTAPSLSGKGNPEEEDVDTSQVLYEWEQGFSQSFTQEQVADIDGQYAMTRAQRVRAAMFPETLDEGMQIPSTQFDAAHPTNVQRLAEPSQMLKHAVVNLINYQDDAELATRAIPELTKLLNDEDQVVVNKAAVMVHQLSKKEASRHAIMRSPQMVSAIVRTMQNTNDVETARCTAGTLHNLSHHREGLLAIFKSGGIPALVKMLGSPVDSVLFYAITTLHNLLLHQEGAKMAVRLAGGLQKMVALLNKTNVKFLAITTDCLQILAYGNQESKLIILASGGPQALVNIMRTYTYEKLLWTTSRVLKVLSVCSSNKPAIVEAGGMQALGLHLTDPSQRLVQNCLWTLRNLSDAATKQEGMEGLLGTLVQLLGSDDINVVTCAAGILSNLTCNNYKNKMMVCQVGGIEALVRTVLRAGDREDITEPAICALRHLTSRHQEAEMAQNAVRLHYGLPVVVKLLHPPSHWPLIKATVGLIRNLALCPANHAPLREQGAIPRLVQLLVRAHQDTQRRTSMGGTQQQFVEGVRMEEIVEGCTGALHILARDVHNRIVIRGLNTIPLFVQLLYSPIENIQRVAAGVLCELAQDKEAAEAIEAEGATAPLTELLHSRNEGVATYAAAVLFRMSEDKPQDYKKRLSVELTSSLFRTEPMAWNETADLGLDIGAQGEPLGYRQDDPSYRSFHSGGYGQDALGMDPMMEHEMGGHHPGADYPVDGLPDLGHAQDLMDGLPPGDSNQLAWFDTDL
Briefly: Fluorescence polarization IC50 (beta-catenin / 5FAM-TCF4 10-53 competition). Format: binding. Conditions: fluorescence polarization; read-out: beta-Catenin FP IC50.

In experiment [2] the target is T2, beta-catenin/TCF4 engagement (Homo sapiens, UniProt P35222).
T2 construct: expressed in transfected cells; host or cells: HEK293
T2 sequence (P35222 1-781): T1 sequence (P35222 1-781)
The experiment is described as follows: Nano-BRET target engagement assay (B-cat-Halo & TCF4-Luc in HEK293 cells). Particulars: absolute IC50; read-out: NanoBRET Abs IC50. Format: cell-based. (Bioluminescence resonance energy transfer reports proximity on the nanometre scale.)

The structures appear in SMILES notation.

On to `CC(=O)N1CCC[C@]12CC=CCCCC1(CCCC=CCCCOC(=O)N3CC[C@@](C(=O)N[C@@H](Cc4ccsc4)C(=O)N[C@@H](Cc4csc5ccccc45)C(=O)N[C@@H](CCO)C(N)=O)(C3)NC(=O)[C@H](CC(C)C)NC(=O)[C@H](Cc3ccccc3)NC(=O)[C@H](C)NC(=O)[C@H](C)NC(=O)[C@H](CC(=O)O)NC(=O)[C@H](CC(=O)O)NC1=O)NC(=O)[C@H]([C@@H](C)O)NC(=O)[C@H](CC(=O)O)NC2=O` (stereo partly drawn) [I-1516, Ac-PL3-Asp-Thr-B5-Asp-Asp-Ala-Ala-Phe-Leu-PyrS2-3Thi-BztA-Hse-NH2], for which the IC50 – broadly, the point on the concentration scale where inhibition reaches its midpoint – in experiment [1] was 30 nM; in experiment [2], over 20000 nM.

As for `CC(=O)N1CCC[C@]12CC=CCCCC1(CCCC=CCCCOC(=O)N3CC[C@@](C(=O)N[C@@H](Cc4ccsc4)C(=O)N[C@@H](Cc4csc5ccccc45)C(=O)N[C@@H](CCC(N)=O)C(N)=O)(C3)NC(=O)[C@H](CC(C)C)NC(=O)[C@H](Cc3ccccc3)NC(=O)[C@H](C)NC(=O)[C@H](C)NC(=O)[C@H](CC(=O)O)NC(=O)[C@H](CC(=O)O)NC1=O)NC(=O)[C@H](CC(N)=O)NC(=O)[C@H](CC(=O)O)NC2=O` (stereo partly drawn) [I-1517, Ac-PL3-Asp-Asn-B5-Asp-Asp-Ala-Ala-Phe-Leu-PyrS2-3Thi-BztA-Gln-NH2], the values for the IC50 in experiment [1] and in experiment [2] were 32 nM and over 20000 nM, respectively.

Consider `CC(=O)N1CCC[C@]12CC=CCCCC1(CCCC=CCCCOC(=O)N3CC[C@@](C(=O)N[C@@H](Cc4ccsc4)C(=O)N[C@@H](Cc4csc5ccccc45)C(=O)N[C@@H](CCC(N)=O)C(N)=O)(C3)NC(=O)[C@H](CC(C)C)NC(=O)[C@H](Cc3ccccc3)NC(=O)[C@H](C)NC(=O)[C@H](C)NC(=O)[C@H](CC(=O)O)NC(=O)[C@H](CC(=O)O)NC1=O)NC(=O)[C@H](CC1CCCCC1)NC(=O)[C@H](CC(=O)O)NC2=O` (stereo partly drawn) [I-1519, Ac-PL3-Asp-Cha-B5-Asp-Asp-Ala-Ala-Phe-Leu-PyrS2-3Thi-BztA-Gln-NH2], for which the IC50 in experiment [1] came to 10 nM; in experiment [2], 12800 nM.

Turning to `CC(=O)N1CCC[C@]12CC=CCCCC1(CCCC=CCCCOC(=O)N3CC[C@@](C(=O)N[C@@H](Cc4ccsc4)C(=O)N[C@@H](Cc4csc5ccccc45)C(=O)N[C@@H](CCO)C(N)=O)(C3)NC(=O)[C@H](CC(C)C)NC(=O)[C@H](Cc3ccccc3)NC(=O)[C@H](C)NC(=O)[C@H](C)NC(=O)[C@H](CC(=O)O)NC(=O)[C@H](CC(=O)O)NC1=O)NC(=O)[C@H](CC1CCCCC1)NC(=O)[C@H](CC(=O)O)NC2=O` (stereo partly drawn) [I-1520, Ac-PL3-Asp-Cha-B5-Asp-Asp-Ala-Ala-Phe-Leu-PyrS2-3Thi-BztA-Hse-NH2], the results for the IC50 in experiment [1] and in experiment [2] were 11 nM and 17400 nM, respectively.

Take `CCCC[C@@H]1NC(=O)[C@H](CC(=O)O)NC(=O)[C@]2(CC=CCCCC3(CCCC=CCCCCCC[C@@](C)(C(=O)N[C@@H](Cc4ccccc4)C(=O)N[C@@H](Cc4csc5ccccc45)C(=O)N[C@@H](CCC(N)=O)C(N)=O)NC(=O)[C@H](CCC(N)=O)NC(=O)[C@H](Cc4ccccc4)NC(=O)[C@H](C)NC(=O)[C@H](C)NC(=O)[C@H](CCC(=O)O)NC(=O)[C@H](CC(=O)O)NC3=O)NC1=O)CCCN2C(C)=O` (stereo partly drawn) [I-1521, Ac-PL3-Asp-nLeu-B5-Asp-Glu-Ala-Ala-Phe-Gln-S8-Phe-BztA-Gln-NH2]: the results for the IC50 in experiment [1] and in experiment [2] were 16 nM and 6000 nM, respectively.

Consider `CCCC[C@@H]1NC(=O)[C@H](CC(=O)O)NC(=O)[C@]2(CC=CCCCC3(CCCC=CCCCCCC[C@@](C)(C(=O)N[C@@H](Cc4ccccc4)C(=O)N[C@@H](Cc4csc5ccccc45)C(=O)N[C@@H](CCC(N)=O)C(N)=O)NC(=O)[C@H](CCC(N)=O)NC(=O)[C@H](Cc4ccccc4)NC(=O)[C@H](C)NC(=O)[C@H](C)NC(=O)[C@H](CCC(=O)O)NC(=O)[C@H](CC(=O)O)NC3=O)NC1=O)CCCN2C(C)=O` (stereo partly drawn) [I-1522, Ac-PL3-Asp-nLeu-B5-Asp-Glu-Ala-Ala-Phe-Gln-S8-Phe-BztA-Gln-NH2], for which the results for the IC50 in experiment [1] and in experiment [2] were 6 nM and 5800 nM, respectively.

For the compound `CCCC[C@@H]1NC(=O)[C@H](CC(=O)O)NC(=O)[C@]2(CC=CCCCC3(CCCC=CCCCCCC[C@@](C)(C(=O)N[C@@H](Cc4ccccc4)C(=O)N[C@@H](Cc4csc5ccccc45)C(=O)N[C@@H](CCC(N)=O)C(N)=O)NC(=O)[C@H](CC(C)C)NC(=O)[C@H](Cc4ccccc4)NC(=O)[C@H](C)NC(=O)[C@H](C)NC(=O)[C@H](CCC(=O)O)NC(=O)[C@H](CC(=O)O)NC3=O)NC1=O)CCCN2C(C)=O` (stereo partly drawn) [I-1523, Ac-PL3-Asp-nLeu-B5-Asp-Glu-Ala-Ala-Phe-Leu-S8-Phe-BztA-Gln-NH2], the IC50 in experiment [1] amounted to 29 nM; in experiment [2], 8000 nM.

With `CCCC[C@@H]1NC(=O)[C@H](CC(=O)O)NC(=O)[C@]2(CC=CCCCC3(CCCC=CCCCCCC[C@@](C)(C(=O)N[C@@H](Cc4ccccc4)C(=O)N[C@@H](Cc4csc5ccccc45)C(=O)N[C@@H](CCC(N)=O)C(N)=O)NC(=O)[C@H](CCO)NC(=O)[C@H](Cc4ccccc4)NC(=O)[C@H](C)NC(=O)[C@H](C)NC(=O)[C@H](CCC(=O)O)NC(=O)[C@H](CC(=O)O)NC3=O)NC1=O)CCCN2C(C)=O` (stereo partly drawn) [I-1524, Ac-PL3-Asp-nLeu-B5-Asp-Glu-Ala-Ala-Phe-Hse-S8-Phe-BztA-Gln-NH2], the IC50 in experiment [1] is 17 nM; in experiment [2], 8100 nM.

Take `CCCC[C@@H]1NC(=O)[C@H](CC(=O)O)NC(=O)[C@]2(CC=CCCCC3(CCCC=CCCCCCC[C@@](C)(C(=O)N[C@@H](Cc4ccccc4)C(=O)N[C@@H](Cc4csc5ccccc45)C(=O)N[C@@H](CCC(N)=O)C(N)=O)NC(=O)[C@H](CCO)NC(=O)[C@H](Cc4ccccc4)NC(=O)[C@H](C)NC(=O)[C@H](C)NC(=O)[C@H](CCC(=O)O)NC(=O)[C@H](CC(=O)O)NC3=O)NC1=O)CCCN2C(C)=O` (stereo partly drawn) [I-1525, Ac-PL3-Asp-nLeu-B5-Asp-Glu-Ala-Ala-Phe-Hse-S8-Phe-BztA-Gln-NH2]: the values for the IC50 in experiment [1] and in experiment [2] were 22 nM and 10800 nM, respectively.

Consider `CC(=O)N1CCC[C@]12CC=CCCCC1(CCCC=CCCCCCC[C@@](C)(C(=O)N[C@@H](Cc3ccccc3)C(=O)N[C@@H](Cc3csc4ccccc34)C(=O)N[C@@H](CCC(N)=O)C(N)=O)NC(=O)[C@H](CCC(N)=O)NC(=O)[C@H](Cc3ccccc3)NC(=O)[C@H](C)NC(=O)[C@H](C)NC(=O)[C@H](CCC(=O)O)NC(=O)[C@H](CC(=O)O)NC1=O)NC(=O)[C@H](CO)NC(=O)[C@H](CC(=O)O)NC2=O` (stereo partly drawn) [I-1526, Ac-PL3-Asp-Ser-B5-Asp-Glu-Ala-Ala-Phe-Gln-S8-Phe-BztA-Gln-NH2], for which the IC50 in experiment [1] is 84 nM; in experiment [2], over 20000 nM.

In the case of `CC(=O)N1CCC[C@]12CC=CCCCC1(CCCC=CCCCCCC[C@@](C)(C(=O)N[C@@H](Cc3ccccc3)C(=O)N[C@@H](Cc3csc4ccccc34)C(=O)N[C@@H](CCC(N)=O)C(N)=O)NC(=O)[C@H](CCC(N)=O)NC(=O)[C@H](Cc3ccccc3)NC(=O)[C@H](C)NC(=O)[C@H](C)NC(=O)[C@H](CCC(=O)O)NC(=O)[C@H](CC(=O)O)NC1=O)NC(=O)[C@H](CO)NC(=O)[C@H](CC(=O)O)NC2=O` (stereo partly drawn) [I-1527, Ac-PL3-Asp-Ser-B5-Asp-Glu-Ala-Ala-Phe-Gln-S8-Phe-BztA-Gln-NH2], the values for the IC50 in experiment [1] and in experiment [2] were 36 nM and 30300 nM, respectively.

Consider `CC(=O)N1CCC[C@]12CC=CCCCC1(CCCC=CCCCCCC[C@@](C)(C(=O)N[C@@H](Cc3ccccc3)C(=O)N[C@@H](Cc3csc4ccccc34)C(=O)N[C@@H](CCC(N)=O)C(N)=O)NC(=O)[C@H](CC(C)C)NC(=O)[C@H](Cc3ccccc3)NC(=O)[C@H](C)NC(=O)[C@H](C)NC(=O)[C@H](CCC(=O)O)NC(=O)[C@H](CC(=O)O)NC1=O)NC(=O)[C@H](CO)NC(=O)[C@H](CC(=O)O)NC2=O` (stereo partly drawn) [I-1528, Ac-PL3-Asp-Ser-B5-Asp-Glu-Ala-Ala-Phe-Leu-S8-Phe-BztA-Gln-NH2], for which the IC50 in experiment [1] was 102 nM; in experiment [2], 31400 nM.

With `CC(=O)N1CCC[C@]12CC=CCCCC1(CCCC=CCCCCCC[C@@](C)(C(=O)N[C@@H](Cc3ccccc3)C(=O)N[C@@H](Cc3csc4ccccc34)C(=O)N[C@@H](CCC(N)=O)C(N)=O)NC(=O)[C@H](CCO)NC(=O)[C@H](Cc3ccccc3)NC(=O)[C@H](C)NC(=O)[C@H](C)NC(=O)[C@H](CCC(=O)O)NC(=O)[C@H](CC(=O)O)NC1=O)NC(=O)[C@H](CO)NC(=O)[C@H](CC(=O)O)NC2=O` (stereo partly drawn) [I-1530, Ac-PL3-Asp-Ser-B5-Asp-Glu-Ala-Ala-Phe-Hse-S8-Phe-BztA-Gln-NH2], the IC50 is 61 nM in experiment [1] and 36900 nM in experiment [2].

In the case of `CC(=O)N1CCC[C@]12CC=CCCCC1(CCCC=CCCCCCC[C@@](C)(C(=O)N[C@@H](Cc3ccccc3)C(=O)N[C@@H](Cc3csc4ccccc34)C(=O)N[C@@H](CCC(N)=O)C(N)=O)NC(=O)[C@H](CCC(N)=O)NC(=O)[C@H](Cc3ccccc3)NC(=O)[C@H](C)NC(=O)[C@H](C)NC(=O)[C@H](CCC(=O)O)NC(=O)[C@H](CC(=O)O)NC1=O)NC(=O)[C@H](CC(N)=O)NC(=O)[C@H](CC(=O)O)NC2=O` (stereo partly drawn) [I-1531, Ac-PL3-Asp-Asn-B5-Asp-Glu-Ala-Ala-Phe-Gln-S8-Phe-BztA-Gln-NH2], the results for the IC50 in experiment [1] and in experiment [2] were 84 nM and over 20000 nM, respectively.
